Where a name gives a salt, the structure may show the parent alone.
Legend:
human GIPR = target: T1, human GIPR (Homo sapiens, UniProt P48546); experiment: Human GIP Receptor Potentiator Assay (cAMP formation, HTRF, in presence of EC20 dose of GIP(1-42)); format: cell-based; settings: HEK293 GIPR cell line intracellular cAMP response, with 25 pM GIP(1-42); for Emax: percent top of maximal response; for EC50: relative EC50, read-out: EC50 (nM) and SEM (n)
T1 construct: expressed in transfected cells; host or cells: HEK293 clonal cell line
T1 sequence (P48546 22-466): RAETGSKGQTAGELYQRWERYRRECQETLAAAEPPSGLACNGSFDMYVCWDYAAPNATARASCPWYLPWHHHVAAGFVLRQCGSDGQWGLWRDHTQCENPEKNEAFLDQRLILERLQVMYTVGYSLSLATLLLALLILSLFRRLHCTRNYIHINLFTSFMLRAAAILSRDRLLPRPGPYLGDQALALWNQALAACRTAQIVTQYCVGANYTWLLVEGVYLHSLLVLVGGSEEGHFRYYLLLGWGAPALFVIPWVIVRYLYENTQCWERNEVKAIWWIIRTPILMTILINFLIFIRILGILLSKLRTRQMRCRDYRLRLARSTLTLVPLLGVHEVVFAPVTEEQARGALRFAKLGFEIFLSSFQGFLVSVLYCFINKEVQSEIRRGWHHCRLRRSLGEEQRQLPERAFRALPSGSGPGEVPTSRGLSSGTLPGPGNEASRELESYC
Procedure: Human GIP Receptor Potentiator Assay
GIP Receptor (GIPR) functional activity is determined using cAMP formation in an HEK293 clonal cell line expressing human GIPR (NCBI accession number NP_000155). […] The hGIPR receptor expressing cells are treated with 25 pM of GIP(1-42) (Labcyte Echo direct dilution) and a dose response of test compound (10 point concentration-response curve in DMSO, 3-fold Labcyte Echo direct dilution, 384 well plate Corning Cat #3570) in DMEM (Gibco Cat #31053) supplemented with 1× GlutaMAX™ (Gibco Cat #35050), 0.1% bovine casein (Sigma C4765-10ML), 250 μM IBMX (3-Isobutyl-1-methylxanthine, Acros Cat #228420010) and 20 mM HEPES (Gibco Cat #15630) in a 20 μL assay volume (final DMSO concentration is 1.0%). After a 30 min incubation at 37° C., the resulting increase in intracellular cAMP is quantitatively determined using the CisBio cAMP Dynamic 2 HTRF Assay Kit (62AM4PEJ). Briefly, cAMP levels within the cell are detected by adding the cAMP-d2 conjugate in cell lysis buffer (10 μL) followed by the antibody anti-cAMP-Eu^3+-Cryptate, also in cell lysis buffer (10 μL). The resulting competitive assay is incubated for at least 60 min at room temperature, then detected using a PerkinElmer Envision® instrument with excitation at 320 nm and emission at 665 nm and 620 nm. Envision units (emission at 665 nm/620 nm*10,000) are inversely proportional to the amount of cAMP present and are converted to nM cAMP per well using a cAMP standard curve. The amount of cAMP generated (nM) in each well is converted to a percent of the maximal response observed. A relative EC50 value and percent top (Emax) are derived by non-linear regression analysis using the percent maximal response vs. the concentration of compound added, fitted to a four-parameter logistic equation. The EC50 and Emax data when the compounds of Examples 1 and 3 are tested in the cAMP assay described above are shown in Table 1.

human GLP-1R = target: T2, human GLP-1R (Homo sapiens, UniProt P43220); experiment: Human GLP-1 Receptor Potentiator Assay (cAMP formation, HTRF, in presence of EC20 dose of oxyntomodulin); format: cell-based; settings: HEK293 GLP-1R cell line intracellular cAMP response, with 5 nM oxyntomodulin
T2 construct: expressed in transfected cells; host or cells: HEK293 clonal cell line
T2 sequence (P43220 24-463): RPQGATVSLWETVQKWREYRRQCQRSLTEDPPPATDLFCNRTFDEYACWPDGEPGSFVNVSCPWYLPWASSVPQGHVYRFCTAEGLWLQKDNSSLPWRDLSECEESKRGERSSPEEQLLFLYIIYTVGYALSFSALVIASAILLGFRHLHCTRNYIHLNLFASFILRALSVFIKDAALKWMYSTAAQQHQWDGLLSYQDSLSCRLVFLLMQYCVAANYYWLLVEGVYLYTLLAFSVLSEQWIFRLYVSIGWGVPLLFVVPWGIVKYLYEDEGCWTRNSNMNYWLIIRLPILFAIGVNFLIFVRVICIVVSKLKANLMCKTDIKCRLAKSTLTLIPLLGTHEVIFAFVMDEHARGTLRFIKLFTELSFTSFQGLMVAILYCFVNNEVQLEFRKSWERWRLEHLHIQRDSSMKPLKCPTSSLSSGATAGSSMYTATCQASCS
Procedure: Human GLP-1 Receptor Potentiator Assay
GLP-1 Receptor (GLP-1R) functional activity is determined using cAMP formation in an HEK293 clonal cell line expressing human GLP-1R (NCBI accession number NP_002053). […] After 60 min incubation at room temperature, the resulting increase in intracellular cAMP is quantitatively determined using a custom CisBio cAMP Hybrid HTRF Assay Kit (60MISZZZ). Briefly, cAMP levels within the cell are detected by adding the Dynamic 2 cAMP-d2 conjugate in cell lysis buffer (10 μL) followed by the HiRange antibody anti-cAMP-Eu^3+-Cryptate, also in cell lysis buffer ([…]). The resulting competitive assay is incubated for at least 60 min at RT, then detected using a PerkinElmer Envision® instrument with excitation at 320 nm and emission at 665 nm and 620 nm. […]

Row | Structure (SMILES) | Emax (human GIPR) [%] | EC50 (human GIPR) [nM] | Emax (human GLP-1R; percent top of maximal response) [%] | EC50 (human GLP-1R; relative EC50, read-out: EC50 (nM) and SEM (n)) [nM]
1 | COc1ccc2c(c1-c1cc(F)c(O)c(NCC(C)C)c1)CCN(C(C)c1ccc(C(C)C)cc1)[C@@H]2C (single isomer, unassigned) [Example 1, dihydrochloride] | 101 ± 7 | 11.9 |  | 
2 | COCC1Cc2c(ccc(OC)c2-c2ccc(O)c(C)c2)CN1Cc1ccc(C(C)C)cc1O (single isomer, unassigned) [Example 2, 4-[2-[(2-Hydroxy-4-isopropyl-phenyl)methyl]-6-methoxy-3-(methoxymethyl)-3,4-dihydro-1H-isoquinolin-5-yl]-2-methyl-phenol; hydrochloride] |  |  | 181 ± 35 | 15.7
3 | COc1ccc2c(c1-c1cc(C)c(O)c(F)c1)CCN(C(C)c1ccc(C(C)C)cc1)[C@@H]2C (single isomer, unassigned) [Example 3, hydrochloride] | 91 ± 8 | 37.5 |  | 

— US12454511B2, “6-methoxy-3,4-dihydro-1H-isoquinolin compounds” (Eli Lilly and Company, priority 2020, dated 2025)
